The source of these data is patent US12281149B2, “Modulators of G-protein coupled receptors” (priority 2021, dated 2025).

SMILES strings stand for the structures. *1 amine or outer side, *2 acyl side, *3 side chain or, on linkers, in order; H or OH if unused. Where a SMILES comes first, the peptide text is derived from it. Side-chain parts run from the residue outwards. [ ]: non-standard residue; d: D form. The star is where a group is joined. Isobutyryl(2-(3-CN-5-F-Ph)) = CC(C)(C(=O)*)c1cc(F)cc(C#N)c1; C20 diacid = O=C(O)CCCCCCCCCCCCCCCCCCC(=O)*; αMePhe(2-F) = C[C@](N)(Cc1ccccc1F)C(=O)O; γGlu = O=C(O)[C@H](CCC(=O)[*:2])N[*:1]; β2hAla(R) = C[C@H](CN[*:1])C(=O)[*:2]; X27 = O=C1CC(C(=O)*)(c2ccccc2)CN1; X69 = CC(C)(C(=O)*)c1c(F)cccc1F; X11 = C[C@@H](C(=O)*)c1ccccc1; d(β3hA) = C[C@@H](N)CC(=O)O; AEEA = NCCOCCOCC(=O)O; Aib = CC(C)(N)C(=O)O; βAla = NCCC(=O)O

Common to all, as to type: cell-based
The target in experiment [1] is T1, GLP-1 receptor (Homo sapiens, UniProt P43220). In words: HitHunter cAMP assay, GLP-1 receptor. The settings on record: for EC50: CHO cells stably expressing human GLP-1 receptor, cAMP accumulation, 30 min, read-out: EC50 GLP-1R; for Emax: CHO cells, cAMP, normalized to maximum signal from GLP-1 (high) and DMSO (low), read-out: Emax GLP-1R. A general note: Cyclic AMP is a second messenger, typically raised through Gs and lowered through Gi signalling.
T1 sequence (P43220 24-463): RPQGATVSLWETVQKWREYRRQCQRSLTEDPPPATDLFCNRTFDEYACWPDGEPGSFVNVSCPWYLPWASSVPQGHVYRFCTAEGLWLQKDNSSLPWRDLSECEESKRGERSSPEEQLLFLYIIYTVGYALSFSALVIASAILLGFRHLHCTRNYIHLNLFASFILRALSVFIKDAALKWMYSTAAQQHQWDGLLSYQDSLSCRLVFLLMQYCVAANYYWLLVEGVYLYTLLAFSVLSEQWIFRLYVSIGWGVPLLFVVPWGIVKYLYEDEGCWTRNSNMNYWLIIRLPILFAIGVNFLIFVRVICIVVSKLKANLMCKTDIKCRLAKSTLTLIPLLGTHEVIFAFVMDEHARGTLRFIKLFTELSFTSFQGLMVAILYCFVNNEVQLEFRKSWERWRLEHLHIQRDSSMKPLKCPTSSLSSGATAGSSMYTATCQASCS

Experiment [2] deals with T2, GIP receptor (Homo sapiens, UniProt P48546).
T2 sequence (P48546 22-466): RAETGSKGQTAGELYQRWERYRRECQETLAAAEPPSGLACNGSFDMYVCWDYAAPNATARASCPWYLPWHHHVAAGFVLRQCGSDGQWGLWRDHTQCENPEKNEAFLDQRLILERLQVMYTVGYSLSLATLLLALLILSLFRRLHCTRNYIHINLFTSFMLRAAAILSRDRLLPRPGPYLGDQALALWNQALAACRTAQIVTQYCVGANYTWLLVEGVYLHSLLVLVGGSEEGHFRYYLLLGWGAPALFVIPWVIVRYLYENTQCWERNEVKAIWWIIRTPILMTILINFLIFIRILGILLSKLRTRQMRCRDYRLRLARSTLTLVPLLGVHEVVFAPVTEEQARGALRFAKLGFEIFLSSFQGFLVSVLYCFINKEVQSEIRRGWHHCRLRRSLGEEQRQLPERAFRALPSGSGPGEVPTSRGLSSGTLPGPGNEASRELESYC
In words: HitHunter cAMP assay, GIP receptor. The settings on record: for EC50: CHO cells stably expressing GIP receptor, cAMP accumulation, 30 min, read-out: EC50 GIP-1R; for Emax: CHO cells, cAMP, normalized to maximum signal from GIP (high) and DMSO (low), read-out: Emax GIP-1R.

Experiment [3] concerns the target T2, GIP receptor. In words: PathHunter β-arrestin assay, GIP receptor. The settings on record: β-arrestin-2 recruitment, PathHunter CHO-K1 GIPR β-Arrestin Cell Line, 90 min at 37° C.; normalized to GIP; read-out: GIPR β Arrestin EC50. Also on record: host or cells: PathHunter CHO-K1 GIPR β-Arrestin Cell Line.
Experiment [4] addresses T1, GLP-1 receptor. In words: PathHunter β-arrestin assay, GLP-1 receptor. Also on record: host or cells: PathHunter CHO-K1 GLP1R β-Arrestin Cell Line. The settings on record: β-arrestin-2 recruitment, PathHunter CHO-K1 GLP1R β-Arrestin Cell Line, 90 min at 37° C.; normalized to GLP-1; read-out: GLP-1R β Arrestin EC50.

As usually defined, the EC50 is the concentration that produces a half-maximal response. Broadly, the Emax is the maximal effect, on the per cent scale that the assay sets.

Turning to `CC[C@H](C)[C@H](NC(=O)[C@H](CC(C)C)NC(=O)[C@H](Cc1c[nH]c2ccccc12)NC(=O)[C@H](CCC(N)=O)NC(=O)[C@@H](NC(=O)[C@H](Cc1ccccc1)NC(=O)[C@H](C)NC(=O)[C@H](CCCCNC(=O)COCCOCCNC(=O)COCCOCCNC(=O)CC[C@H](NC(=O)CCCCCCCCCCCCCCCCCCC(=O)O)C(=O)O)NC(=O)[C@H](CCC(N)=O)NC(=O)[C@H](C)NC(=O)[C@@H](NC(=O)[C@H](CCCCN)NC(=O)[C@H](CC(=O)O)NC(=O)[C@H](CC(C)C)NC(=O)C(C)(C)NC(=O)[C@@H](NC(=O)[C@H](CO)NC(=O)[C@H](Cc1ccc(O)cc1)NC(=O)[C@H](CC(=O)O)NC(=O)[C@H](CO)NC(=O)[C@@H](NC(=O)[C@H](Cc1ccccc1)NC(=O)[C@@H](NC(=O)CNC(=O)[C@H](CCC(=O)O)NC(=O)C[C@@H](C)NC(=O)C(C)(C)c1cc(F)cc(C#N)c1)[C@@H](C)O)[C@@H](C)O)[C@@H](C)CC)[C@@H](C)CC)C(C)C)C(=O)N[C@@H](C)C(=O)NCC(=O)NCC(=O)N1CCC[C@H]1C(=O)N[C@@H](CO)C(=O)N[C@@H](CO)C(=O)NCC(=O)N[C@@H](C)C(=O)N1CCC[C@H]1C(=O)N1CCC[C@H]1C(=O)N1CCC[C@H]1C(=O)N[C@@H](CO)C(N)=O` [Compound 223] ({Isobutyryl(2-(3-CN-5-F-Ph))}-[d(β3hA)]EGTFTSDYSI[Aib]LDKIAQK([AEEA-AEEA-γGlu-C20 diacid])AFVQWLIAGGPSSGAPPPS-NH2), the EC50 in experiment [1] was 10 to 100 nM; in experiment [2], 100 to 1000 nM; in experiment [3], over 1000 nM; in experiment [4], over 1000 nM. Moreover, the Emax came to 96% in experiment [1] and 42% in experiment [2].

As for `CC[C@H](C)[C@H](NC(=O)[C@H](CC(C)C)NC(=O)[C@H](Cc1c[nH]c2ccccc12)NC(=O)[C@H](CCC(N)=O)NC(=O)[C@@H](NC(=O)[C@H](Cc1ccccc1)NC(=O)[C@H](C)NC(=O)[C@H](CCCCNC(=O)COCCOCCNC(=O)COCCOCCNC(=O)CC[C@H](NC(=O)CCCCCCCCCCCCCCCCCCC(=O)O)C(=O)O)NC(=O)[C@H](CCC(N)=O)NC(=O)[C@H](C)NC(=O)[C@@H](NC(=O)[C@H](CCCCN)NC(=O)[C@H](CC(=O)O)NC(=O)[C@H](CC(C)C)NC(=O)C(C)(C)NC(=O)[C@@H](NC(=O)[C@H](CO)NC(=O)[C@H](Cc1ccc(O)cc1)NC(=O)[C@H](CC(=O)O)NC(=O)[C@H](CO)NC(=O)[C@@H](NC(=O)[C@H](Cc1ccccc1)NC(=O)[C@@H](NC(=O)CNC(=O)[C@H](CCC(=O)O)NC(=O)[C@H](C)CNC(=O)C(C)(C)c1cc(F)cc(C#N)c1)[C@@H](C)O)[C@@H](C)O)[C@@H](C)CC)[C@@H](C)CC)C(C)C)C(=O)N[C@@H](C)C(=O)NCC(=O)NCC(=O)N1CCC[C@H]1C(=O)N[C@@H](CO)C(=O)N[C@@H](CO)C(=O)NCC(=O)N[C@@H](C)C(=O)N1CCC[C@H]1C(=O)N1CCC[C@H]1C(=O)N1CCC[C@H]1C(=O)N[C@@H](CO)C(N)=O` [Compound 225] ({Isobutyryl(2-(3-CN-5-F-Ph))}-[β2hAla(R)]EGTFTSDYSI[Aib]LDKIAQK([AEEA-AEEA-γGlu-C20 diacid])AFVQWLIAGGPSSGAPPPS-NH2), the EC50 is 0.1 to 1 nM in experiment [1], 10 to 100 nM in experiment [2], over 1000 nM in experiment [3] and over 1000 nM in experiment [4]. Moreover, the maximal effect (Emax) is 102% in experiment [1] and 98% in experiment [2].

In the case of `CC[C@H](C)[C@H](NC(=O)[C@H](CC(C)C)NC(=O)[C@H](Cc1c[nH]c2ccccc12)NC(=O)[C@H](CCC(N)=O)NC(=O)[C@@H](NC(=O)[C@H](Cc1ccccc1)NC(=O)[C@H](C)NC(=O)[C@H](CCCCNC(=O)COCCOCCNC(=O)COCCOCCNC(=O)CC[C@H](NC(=O)CCCCCCCCCCCCCCCCCCC(=O)O)C(=O)O)NC(=O)[C@H](CCC(N)=O)NC(=O)[C@H](C)NC(=O)[C@@H](NC(=O)[C@H](CCCCN)NC(=O)[C@H](CC(=O)O)NC(=O)[C@H](CC(C)C)NC(=O)C(C)(C)NC(=O)[C@@H](NC(=O)[C@H](CO)NC(=O)[C@H](Cc1ccc(O)cc1)NC(=O)[C@H](CC(=O)O)NC(=O)[C@H](CO)NC(=O)[C@@H](NC(=O)[C@H](Cc1ccccc1)NC(=O)[C@@H](NC(=O)CNC(=O)[C@H](CCC(=O)O)NC(=O)CCNC(=O)C(C)(C)c1c(F)cccc1F)[C@@H](C)O)[C@@H](C)O)[C@@H](C)CC)[C@@H](C)CC)C(C)C)C(=O)N[C@@H](C)C(=O)NCC(=O)NCC(=O)N1CCC[C@H]1C(=O)N[C@@H](CO)C(=O)N[C@@H](CO)C(=O)NCC(=O)N[C@@H](C)C(=O)N1CCC[C@H]1C(=O)N1CCC[C@H]1C(=O)N1CCC[C@H]1C(=O)N[C@@H](CO)C(N)=O` [Compound 163] ({X69-βAla}-EGTFTSDYSI[Aib]LDKIAQK([AEEA-AEEA-γGlu-C20 diacid])AFVQWLIAGGPSSGAPPPS-NH2), the EC50 is 0.1 to 1 nM in experiment [1], 10 to 100 nM in experiment [2], under 1000 nM in experiment [3] and over 1000 nM in experiment [4]. Further, the Emax worked out at 104% in experiment [1] and 105% in experiment [2].

With `CC[C@H](C)[C@H](NC(=O)[C@H](CO)NC(=O)[C@H](CCCCNC(=O)COCCOCCNC(=O)COCCOCCNC(=O)CC[C@H](NC(=O)CCCCCCCCCCCCCCCCCCC(=O)O)C(=O)O)NC(=O)[C@H](CC(=O)O)NC(=O)[C@H](CO)NC(=O)[C@@H](NC(=O)[C@](C)(Cc1ccccc1F)NC(=O)[C@@H](NC(=O)CNC(=O)[C@H](CCC(=O)O)NC(=O)CCNC(=O)C1(c2ccccc2)CNC(=O)C1)[C@@H](C)O)[C@@H](C)O)C(=O)N[C@@H](Cc1ccc(O)cc1)C(=O)N[C@@H](CC(C)C)C(=O)N[C@@H](CC(=O)O)C(=O)N[C@@H](CCCCN)C(=O)N[C@@H](CCC(N)=O)C(=O)N[C@@H](C)C(=O)N[C@@H](C)C(=O)NC(C)(C)C(=O)N[C@@H](CCC(=O)O)C(=O)N[C@@H](Cc1ccccc1)C(=O)N[C@H](C(=O)N[C@@H](CC(N)=O)C(=O)N[C@@H](Cc1c[nH]c2ccccc12)C(=O)N[C@@H](CC(C)C)C(=O)N[C@@H](CC(C)C)C(=O)N[C@@H](C)C(=O)NCC(=O)NCC(=O)N1CCC[C@H]1C(=O)N[C@@H](CO)C(=O)N[C@@H](CO)C(=O)NCC(=O)N[C@@H](C)C(=O)N1CCC[C@H]1C(=O)N1CCC[C@H]1C(=O)N1CCC[C@H]1C(=O)N[C@@H](CO)C(N)=O)C(C)C` (stereo partly drawn) [Compound 138] ({X27-βAla}-EGT[αMePhe(2-F)]TSDK([AEEA-AEEA-γGlu-C20 diacid])SIYLDKQAA[Aib]EFVNWLLAGGPSSGAPPPS-NH2), the EC50 was under 0.1 nM in experiment [1], 0.1 to 1 nM in experiment [2], under 1000 nM in experiment [3] and under 1000 nM in experiment [4]. The maximal response (Emax) in experiment [1] and in experiment [2] was 100% in each case.

Turning to `CC[C@H](C)[C@H](NC(=O)[C@H](CC(C)C)NC(=O)[C@H](Cc1c[nH]c2ccccc12)NC(=O)[C@H](CCC(N)=O)NC(=O)[C@@H](NC(=O)[C@H](Cc1ccccc1)NC(=O)[C@H](C)NC(=O)[C@H](CCCCNC(=O)COCCOCCNC(=O)COCCOCCNC(=O)CC[C@H](NC(=O)CCCCCCCCCCCCCCCCCCC(=O)O)C(=O)O)NC(=O)[C@H](CCC(N)=O)NC(=O)[C@H](C)NC(=O)[C@@H](NC(=O)[C@H](CCCCN)NC(=O)[C@H](CC(=O)O)NC(=O)[C@H](CC(C)C)NC(=O)C(C)(C)NC(=O)[C@@H](NC(=O)[C@H](CO)NC(=O)[C@H](Cc1ccc(O)cc1)NC(=O)[C@H](CC(=O)O)NC(=O)[C@H](CO)NC(=O)[C@@H](NC(=O)[C@H](Cc1ccccc1)NC(=O)[C@@H](NC(=O)CNC(=O)[C@H](CCC(=O)O)NC(=O)CCNC(=O)[C@H](C)c1ccccc1)[C@@H](C)O)[C@@H](C)O)[C@@H](C)CC)[C@@H](C)CC)C(C)C)C(=O)N[C@@H](C)C(=O)NCC(=O)NCC(=O)N1CCC[C@H]1C(=O)N[C@@H](CO)C(=O)N[C@@H](CO)C(=O)NCC(=O)N[C@@H](C)C(=O)N1CCC[C@H]1C(=O)N1CCC[C@H]1C(=O)N1CCC[C@H]1C(=O)N[C@@H](CO)C(N)=O` [Compound 204] ({X11-βAla}-EGTFTSDYSI[Aib]LDKIAQK([AEEA-AEEA-γGlu-C20 diacid])AFVQWLIAGGPSSGAPPPS-NH2), the EC50 is 1 to 10 nM in experiment [1], 10 to 100 nM in experiment [2], over 1000 nM in experiment [3] and over 1000 nM in experiment [4]. For the same molecule, the Emax is 106% in experiment [1] and 105% in experiment [2].
